Read-outs that look alike come from different tables or passages of the source.
Tests used:
[1] = Description: A second more extensive group of potential oxygen scavengers were compared, again using a small laboratory boiler and oxygen saturated feed water containing sodium hydroxide. […] The hydrazine salts among this group are no less toxic than hydrazine and therefore were eliminated from further study. […] In addition, the carbohydrazide was preferred because it is a solid at room temperature and could therefore be used in dry formulations.
INITIAL SCREENING AT 227-239° F.

Solubility in water = type: physicochemical
[2] = Carbohydrazide vs. hydrazine in oxygen removal, once-through apparatus (Table III); conditions: for % O2 Removal / Final O2: initial O2 7.7 ppm, 227-239° F., pH about 10.5
Description: A once-through experimental apparatus for simulating boiler water transport was utilized in this example. Water temperature in this example was maintained at about 227°-239° F. and pH at about 10.5.

[3] = Commercial scale boiler comparison of oxygen scavenging
Description: Commercial scale comparisons were made between carbohydrazide and hydrazine. The tests were run on a system including a deaerator which treats a mixture of feed water and condensate at 60 p.s.i. and 300°-310° F. before it is fed to a first stage heater at 160 p.s.i. and 360°-366° F. and a second stage heater at 400 p.s.i. and 446°-450° F. The second stage heater then feeds into three boilers: a combination boiler at 1,275 p.s.i., a first power boiler at 1,275 p.s.i. and a second power boiler at 400 p.s.i. The treatment chemicals were fed alternatively at the deaerator and just down line from it.

[4] = Metal passivation in experimental firerod boiler (Table IV)
Text: Metal passivation studies were undertaken using an experimental firerod boiler under the following test conditions:
10 boiler water concentrations
40 ppm M alkalinity (as CaCO3)
A blank containing no oxygen scavenger was followed by test runs with hydrazine, carbohydrazide, and sodium sulfite.
*Tubes ranked by appearance of metal surface.

[5] = Carbohydrazide low temperature hydrolysis (Table V); type: physicochemical; design: Hydrazine By Hydrolysis: unit not given here; conditions: for Hydrazine By Hydrolysis / Percent Hydrolysis / ppm Hydrazine: 1,000 ppm
Description: Low temperature hydrolysis studies of carbohydrazide were carried out using reagent grade carbohydrazide containing approximately 2.7±0.1% hydrazine as an impurity. A 1,000 ppm carbohydrazide solution and a 100 ppm hydrazine solution were prepared with deaerated, deionized water. Half of the carbohydrazide solution was adjusted to pH 10.2 with sodium hydroxide and the other half was left at its original pH of 6.9. The solutions were poured into Nessler tubes to overflowing and sealed with stoppers fitted with hypodermic needles to allow pressure release with minimum air contact. Four samples of both of the carbohydrazide solutions and two samples of the hydrazine control were stored at varying temperatures for varying periods of time, all as reported in Table V below.

[6] = type: physicochemical; conditions: for Final Hydrazine Level / Percent Hydrolysis: fed at 100 ppm, pH 8.0, 600 p.s.i.
Text: High temperature hydrolysis studies were next carried out again using reagent grade carbohydrazide containing approximately 2% hydrazine as an impurity. The apparatus used in this work was the once-through experimental apparatus for simulating boiler water transport referred to in Example 2, with feedwater pH set at 8.0 and system pressure at 600 p.s.i.
^1 Carbohydrazide was fed at 100 ppm; complete hydrolysis of the
carbohydrazide would theoretically yield 71.1 ppm N2 H4.

[7] = Corrosion control under static storage conditions; conditions: 160 moles or more of carbohydrazide per mole of oxygen
Text: The amount of carbohydrazide required to effectively scavenge oxygen from the boiler water is dependent upon the amount of oxygen actually present therein. It is generally desirable that at least 0.5 moles of carbohydrazide be used per mole of oxygen. These minimum levels of carbohydrazide will have the added benefit of effectively passivating metal surfaces. Of course, levels of carbohydrazide considerably in excess of 0.5 moles per mole of oxygen may be required, particularly for treating boiler water under static storage conditions.

[8] = pH 6.9, Room Temp. (77° F.), 2 days
[9] = pH 6.9, Room Temp. (77° F.), 4 days
[10] = pH 6.9, Room Temp. (77° F.), 6 days
[11] = pH 10.2, Room Temp. (77° F.), 2 days
[12] = pH 10.2, Room Temp. (77° F.), 4 days
[13] = pH 10.2, Room Temp. (77° F.), 6 days
[14] = 282 °F., residence time 14.5 min
[15] = 343 °F., residence time 14.5 min
[16] = 400 °F., residence time 14.5 min
[17] = 400 °F., residence time 15.0 min

Q: Which results are given for `NNC(=O)NN` [Carbohydrazide, N, N' diaminourea]?
A: Scavenger ranking of the remaining two compounds [1]: the best scavenger; Oxygen scavenging activity relative to hydrazine ([1]; 227-239° F., Table II): activity comparable to hydrazine; % O2 Removal ([1]; initial O2 40 ppb, 227-239° F.): 87.5%; Final O2 ([1]; initial O2 40 ppb, 227-239° F.): 5 ppb; Solubility in water (Solubility in water): freely soluble in water; % O2 Removal ([2]; ppm scavenger/ppm O2 0.05/1): 14.3%; Final O2 ([2]; ppm scavenger/ppm O2 0.05/1): 6.60 ppm; % O2 Removal ([2]; ppm scavenger/ppm O2 0.5/1): 57.4%; Final O2 ([2]; ppm scavenger/ppm O2 0.5/1): 3.28 ppm; % O2 Removal ([2]; ppm scavenger/ppm O2 5.0/1): 98.7%; Final O2 ([2]; ppm scavenger/ppm O2 5.0/1): 0.10 ppm; Amount needed for oxygen removal achieved with a given concentration of hydrazine ([2]; vs hydrazine, Table III): half as much; Oxygen scavenging relative to hydrazine, various points ([3]; carbohydrazide levels half those of hydrazine): comparable or superior to the hydrazine; Oxygen scavenging relative to hydrazine at 360° F. ([3]; just past first stage heater, carbohydrazide at 50% of hydrazine level): scavenged the oxygen more efficiently than the hydrazine; Oxygen scavenging relative to hydrazine at 446° F. ([3]; just past second stage heater, carbohydrazide at 50% of hydrazine level): scavenged the oxygen more efficiently than the hydrazine; Oxygen scavenging relative to hydrazine at 300° F. ([3]; just past the deaerator, carbohydrazide at 50% of hydrazine level): comparable with the hydrazine; Tube Rank (by appearance of metal surface) ([4]; dosage 1 ppm, 600 p.s.i., 48 hour test): 1; Metal passivation effectiveness ([4]; under the test conditions, Table IV): the most effective metal passivator; Hydrolysis at 120° F. ([5]; 120° F.): no hydrolysis occured; Hydrolysis above the original free hydrazine level ([5]; 180° F.): 3%; Hydrazine By Hydrolysis ([5]; pH 6.9, 120° F., 2 days): 0; Percent Hydrolysis ([5]; pH 6.9, 120° F., 2 days): 2.7%; ppm Hydrazine ([5]; pH 6.9, 120° F., 2 days): 18.9 ppm; Hydrazine By Hydrolysis ([5]; pH 6.9, 120° F., 4 days): 0; Percent Hydrolysis ([5]; pH 6.9, 120° F., 4 days): 2.6%; ppm Hydrazine ([5]; pH 6.9, 120° F., 4 days): 18.8 ppm; Hydrazine By Hydrolysis ([5]; pH 6.9, 120° F., 6 days): 0; Percent Hydrolysis ([5]; pH 6.9, 120° F., 6 days): 2.6%; ppm Hydrazine ([5]; pH 6.9, 120° F., 6 days): 18.3 ppm; Hydrazine By Hydrolysis ([5]; pH 6.9, 180° F., 2 days): 1.3; Percent Hydrolysis ([5]; pH 6.9, 180° F., 2 days): 4.0%; ppm Hydrazine ([5]; pH 6.9, 180° F., 2 days): 28.4 ppm; Hydrazine By Hydrolysis ([5]; pH 6.9, 180° F., 4 days): 2.3; Percent Hydrolysis ([5]; pH 6.9, 180° F., 4 days): 5.0%; ppm Hydrazine ([5]; pH 6.9, 180° F., 4 days): 35.4 ppm; Hydrazine By Hydrolysis ([5]; pH 6.9, 180° F., 6 days): 3.0; Percent Hydrolysis ([5]; pH 6.9, 180° F., 6 days): 5.7%; ppm Hydrazine ([5]; pH 6.9, 180° F., 6 days): 40.2 ppm; Hydrazine By Hydrolysis [5, 8]: 0; Percent Hydrolysis [5, 8]: 2.8%; ppm Hydrazine [5, 8]: 19.7 ppm; Hydrazine By Hydrolysis [5, 9]: 0; Percent Hydrolysis [5, 9]: 2.7%; ppm Hydrazine [5, 9]: 19.1 ppm; Hydrazine By Hydrolysis [5, 10]: 0; Percent Hydrolysis [5, 10]: 2.6%; ppm Hydrazine [5, 10]: 18,7 ppm; Hydrazine By Hydrolysis ([5]; pH 6.9, time 0): 0; Percent Hydrolysis ([5]; pH 6.9, time 0): 2.7%; ppm Hydrazine ([5]; pH 6.9, time 0): 19.0 ppm; Hydrazine By Hydrolysis ([5]; pH 10.2, 120° F., 2 days): 0; Percent Hydrolysis ([5]; pH 10.2, 120° F., 2 days): 2.8%; ppm Hydrazine ([5]; pH 10.2, 120° F., 2 days): 20.0 ppm; Hydrazine By Hydrolysis ([5]; pH 10.2, 120° F., 4 days): 0; Percent Hydrolysis ([5]; pH 10.2, 120° F., 4 days): 2.8%; ppm Hydrazine ([5]; pH 10.2, 120° F., 4 days): 19.8 ppm; Hydrazine By Hydrolysis ([5]; pH 10.2, 120° F., 6 days): 0; Percent Hydrolysis ([5]; pH 10.2, 120° F., 6 days): 2.7%; ppm Hydrazine ([5]; pH 10.2, 120° F., 6 days): 19.3 ppm; Hydrazine By Hydrolysis ([5]; pH 10.2, 180° F., 2 days): 1.4; Percent Hydrolysis ([5]; pH 10.2, 180° F., 2 days): 4.1%; ppm Hydrazine ([5]; pH 10.2, 180° F., 2 days): 29.0 ppm; Hydrazine By Hydrolysis ([5]; pH 10.2, 180° F., 4 days): 2.1; Percent Hydrolysis ([5]; pH 10.2, 180° F., 4 days): 4.8%; ppm Hydrazine ([5]; pH 10.2, 180° F., 4 days): 34.2 ppm; Hydrazine By Hydrolysis ([5]; pH 10.2, 180° F., 6 days): 2.7; Percent Hydrolysis ([5]; pH 10.2, 180° F., 6 days): 5.4%; ppm Hydrazine ([5]; pH 10.2, 180° F., 6 days): 38.6 ppm; Hydrazine By Hydrolysis [5, 11]: 0; Percent Hydrolysis [5, 11]: 2.8%; ppm Hydrazine [5, 11]: 20.2 ppm; Hydrazine By Hydrolysis [5, 12]: 0.1; Percent Hydrolysis [5, 12]: 2.9%; ppm Hydrazine [5, 12]: 20.5 ppm; Hydrazine By Hydrolysis [5, 13]: 0; Percent Hydrolysis [5, 13]: 2.8%; ppm Hydrazine [5, 13]: 20.1 ppm; Hydrazine By Hydrolysis ([5]; pH 10.2, time 0): 0; Percent Hydrolysis ([5]; pH 10.2, time 0): 2.7%; ppm Hydrazine ([5]; pH 10.2, time 0): 19.1 ppm; pH dependence of hydrolysis values ([5]; pH range of 7-10): did not vary significantly; Hydrolysis at room temperature ([5]; room temperature): no hydrolysis occured; Hydrolysis at 220° F. ([6]; 220° F.): minimal; Hydrolysis at 282° F. ([6]; 282° F.): minimal; Final Hydrazine Level [6, 14]: 7 ppm; Percent Hydrolysis [6, 14]: 7.0%; Hydrolysis at 340° F. through 400° F. ([6]; 340° F. through 400° F.): still not complete; Final Hydrazine Level [6, 15]: 45 ppm; Percent Hydrolysis [6, 15]: 60.5%; Final Hydrazine Level [6, 16]: 59 ppm; Percent Hydrolysis [6, 16]: 80.2%; Final Hydrazine Level [6, 17]: 61 ppm; Percent Hydrolysis [6, 17]: 83.0%; Hydrazine found ([6]; about 220° F.): less than 7%; Percent Hydrolysis ([6]; residence time 14.5 min): 0%; Final Hydrazine Level ([6]; temperature 21 °F. (so in the source), residence time 14.5 min): 2 ppm; Corrosion control under static conditions [7]: effective in controlling corrosion

Reference: US4269717A, “Boiler additives for oxygen scavenging” (priority 1980, dated 1981)
